Like-named read-outs stand apart in the source and are kept apart here.
Columns and labels:
[1] = tested on: Jurkat; test: Tumor cell proliferation inhibition (CellTiter-Meiluncell Luminescent Cell Viability Assay), Jurkat; conditions: Homo sapiens, read-out: inhibitory activity (IC50, nM) against tumor cells proliferation, Jurkat
[2] = tested on: CCRF-CEM; test: Tumor cell proliferation inhibition (CellTiter-Meiluncell Luminescent Cell Viability Assay), CCRF-CEM; conditions: Homo sapiens; for IC50: read-out: inhibitory activity (IC50, nM) against tumor cells proliferation, CCRF-CEM; for inhibition at 0.01 µM: read-out: Inhibition rate (%) at 10 nM; for inhibition at 0.5 µM: read-out: Inhibition rate (%) at 500 nM
[3] = tested on: MM.1S; test: Tumor cell proliferation inhibition (CellTiter-Meiluncell Luminescent Cell Viability Assay), MM.1S; conditions: Homo sapiens, MM1.S, read-out: inhibitory activity (IC50, nM) against tumor cells proliferation, MM.1S
Description: (§1) The tumor cells used herein were cultured in a cell culture medium listed in table 2 at 37°C in an incubator with 5% CO2. Prior to experimentation, all cell lines used were correctly identified by STR profiling, and tested negative for mycoplasma contamination using a mycoplasma detection kit through routine screenings.
(§2) On the following day, the test compounds of the present disclosure were subjected to serial dilution. […] Subsequently, 0.5 µL of the test compound dilution was transferred into the 96-well plate containing the cells, with each well containing 100 µL of cell culture medium. […] Into the 96-well plate, the diluted test compounds and corresponding detection reagents were added, resulting in final test compound concentrations of 500 nM and 10 nM, respectively.
(§3) After the cells were treated with the compounds of the present disclosure for a specified period (the treatment durations were shown in Table 3), the cell viability assay reagent was added to the culture medium according to the kit's instructions to determine cell viability. […] All controls were treated using the same procedure as the compounds of the present disclosure. The growth inhibition curves for the compounds of the present disclosure were plotted using Prism GraphPad software, and the IC50 values were calculated therefrom.

[4] = molecular target: T1, IKZF3 (Homo sapiens, UniProt Q96SW2+Q9UKT9); test: Western-blot assay of substrate protein degradation in hPBMCs, IKZF3; format: cell-based; conditions: 24 hours of compound treatment, 50 nM and 500 nM tested (concentration behind the class not stated)
T1 construct: endogenous in cells; host or cells: hPBMCs (Milecell Biotechnologies)

[5] = tested on: MV-4-11; test: Tumor cell proliferation inhibition (CellTiter-Meiluncell Luminescent Cell Viability Assay), MV-4-11; conditions: Homo sapiens, MV4-11, read-out: inhibitory activity (IC50, nM) against tumor cells proliferation, MV-4-11
Description: as §1, §2, §3

[6] = tested on: NCI-H1975; test: Tumor cell proliferation inhibition (CellTiter-Meiluncell Luminescent Cell Viability Assay), NCI-H1975; conditions: Homo sapiens
[7] = molecular target: T2, human Cereblon WT GST-tagged protein (Homo sapiens, UniProt Q96SW2); test: CRBN-binding affinity by HTRF (CEREBLON BINDING kit); conditions: HTRF inhibitory activity, CEREBLON BINDING kit; read-out: HTRF IC50
T2 construct: purchased CISBIO 64BDCRBNPEH

[8] = tested on: Human acute T lymphocytic leukemia cells (Molt-4); test: Tumor cell proliferation inhibition (CellTiter-Meiluncell Luminescent Cell Viability Assay), Molt-4; conditions: for inhibition at 0.01 µM: MOLT-4, read-out: Inhibition rate (%) at 10 nM; for inhibition at 0.5 µM: MOLT-4, read-out: Inhibition rate (%) at 500 nM
[9] = molecular target: T3, GSPT1 (Homo sapiens, UniProt P15170+Q96SW2); test: Western-blot assay of substrate protein degradation in hPBMCs, GSPT1; format: cell-based; conditions: 24 hours of compound treatment, 50 nM and 500 nM tested (concentration behind the class not stated)
T3 construct: endogenous in cells; host or cells: hPBMCs (Milecell Biotechnologies)

[10] = molecular target: T4, CK1α (Homo sapiens, UniProt P48729+Q96SW2); test: Western-blot assay of substrate protein degradation in hPBMCs, CK1α; format: cell-based; conditions: 24 hours of compound treatment, 50 nM and 500 nM tested (concentration behind the class not stated)
T4 construct: endogenous in cells; host or cells: hPBMCs (Milecell Biotechnologies)

[11] = molecular target: T5, WEE1 (Homo sapiens, UniProt P30291+Q96SW2); test: Western-blot assay of substrate protein degradation in hPBMCs, WEE1; format: cell-based; conditions: 24 hours of compound treatment, 50 nM and 500 nM tested (concentration behind the class not stated)
T5 construct: endogenous in cells; host or cells: hPBMCs (Milecell Biotechnologies)

[12] = molecular target: T6, IKZF1 (Homo sapiens, UniProt Q13422+Q96SW2); test: Western-blot assay of substrate protein degradation in hPBMCs, IKZF1; format: cell-based; conditions: 24 hours of compound treatment, 50 nM and 500 nM tested (concentration behind the class not stated)
T6 construct: endogenous in cells; host or cells: hPBMCs (Milecell Biotechnologies)

[13] = molecular target: T7, IKZF2 (Homo sapiens, UniProt Q96SW2+Q9UKS7); test: Western-blot assay of substrate protein degradation in hPBMCs, IKZF2; format: cell-based; conditions: 24 hours of compound treatment, 50 nM and 500 nM tested (concentration behind the class not stated)
T7 construct: endogenous in cells; host or cells: hPBMCs (Milecell Biotechnologies)

[14] = tested on: SR; test: Tumor cell proliferation inhibition (CellTiter-Meiluncell Luminescent Cell Viability Assay), SR; conditions: Homo sapiens, read-out: inhibitory activity (IC50, nM) against tumor cells proliferation, SR
Description: as §1, §2, §3

[15] = tested on: TMD8; test: Tumor cell proliferation inhibition (CellTiter-Meiluncell Luminescent Cell Viability Assay), TMD8; conditions: Homo sapiens
Description: as §1
(§4) On the following day, the test compounds of the present disclosure were subjected to serial dilution. […] Subsequently, 0.5 µL of the test compound dilution was transferred into the 96-well plate containing the cells, with each well containing 100 µL of cell culture medium. […] Into the 96-well plate, the diluted test compounds and corresponding detection reagents were added, resulting in final test compound concentrations of 500 nM and 10 nM, respectively. The experimental procedure is described below using the diluted 2 µM test compound as an example.
as §3

[16] = tested on: Kasumi-1; test: Tumor cell proliferation inhibition (CellTiter-Meiluncell Luminescent Cell Viability Assay), Kasumi-1; conditions: Homo sapiens; for inhibition at 0.01 µM: Kasumi 1, read-out: Inhibition rate (%) at 10 nM; for inhibition at 0.5 µM: Kasumi 1, read-out: Inhibition rate (%) at 500 nM
Description: as §4, §3

[17] = tested on: Human breast cancer cells (MDA-MB-231); test: Tumor cell proliferation inhibition (CellTiter-Meiluncell Luminescent Cell Viability Assay), MDA-MB-231; conditions: for inhibition at 0.01 µM: MDA-MB-231, read-out: Inhibition rate (%) at 10 nM; for inhibition at 0.5 µM: MDA-MB-231, read-out: Inhibition rate (%) at 500 nM
[18] = tested on: MGC803; test: Tumor cell proliferation inhibition (CellTiter-Meiluncell Luminescent Cell Viability Assay), MGC803; conditions: Homo sapiens, MGC-803, 96 h, read-out: inhibitory activity (IC50, nM) against tumor cells proliferation, MGC803
[19] = tested on: SW620; test: Tumor cell proliferation inhibition (CellTiter-Meiluncell Luminescent Cell Viability Assay), SW620; conditions: Homo sapiens, SW-620, 96 h, read-out: inhibitory activity (IC50, nM) against tumor cells proliferation, SW620
[20] = tested on: MM.1R; test: Tumor cell proliferation inhibition (CellTiter-Meiluncell Luminescent Cell Viability Assay), MM.1R; conditions: Homo sapiens, 96 h, read-out: inhibitory activity (IC50, nM) against tumor cells proliferation, MM.1R
Description: as §1, §4, §3

[21] = tested on: Vcap; test: Tumor cell proliferation inhibition (CellTiter-Meiluncell Luminescent Cell Viability Assay), Vcap; conditions: Homo sapiens, 96 h, read-out: inhibitory activity (IC50, nM) against tumor cells proliferation, Vcap
[22] = tested on: CAL-62; test: Tumor cell proliferation inhibition (CellTiter-Meiluncell Luminescent Cell Viability Assay), CAL-62; conditions: Homo sapiens, CAL-62, 96 h, read-out: inhibitory activity (IC50, nM) against tumor cells proliferation, CAL-62
[23] = NCI-H1975, read-out: inhibitory activity (IC50, nM) against tumor cells proliferation, H1975
[24] = MOLT-4, read-out: inhibitory activity (IC50, nM) against tumor cells proliferation, Molt-4
[25] = TMD8, read-out: inhibitory activity (IC50, nM) against tumor cells proliferation, TMD8

T1 sequence (Q9UKT9 whole entry): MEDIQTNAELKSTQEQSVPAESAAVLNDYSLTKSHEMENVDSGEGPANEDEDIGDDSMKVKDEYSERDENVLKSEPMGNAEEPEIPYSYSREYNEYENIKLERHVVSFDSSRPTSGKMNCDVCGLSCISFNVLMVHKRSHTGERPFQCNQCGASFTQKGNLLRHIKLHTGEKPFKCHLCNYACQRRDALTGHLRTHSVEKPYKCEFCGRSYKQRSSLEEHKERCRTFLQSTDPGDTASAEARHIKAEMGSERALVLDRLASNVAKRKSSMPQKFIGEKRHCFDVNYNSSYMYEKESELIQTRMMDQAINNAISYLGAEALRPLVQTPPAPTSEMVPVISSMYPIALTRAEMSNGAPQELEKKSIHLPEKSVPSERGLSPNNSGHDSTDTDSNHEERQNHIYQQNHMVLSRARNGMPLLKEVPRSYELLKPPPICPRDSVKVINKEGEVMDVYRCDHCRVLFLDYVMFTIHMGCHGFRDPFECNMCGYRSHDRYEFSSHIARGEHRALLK
T1 sequence (Q96SW2 whole entry): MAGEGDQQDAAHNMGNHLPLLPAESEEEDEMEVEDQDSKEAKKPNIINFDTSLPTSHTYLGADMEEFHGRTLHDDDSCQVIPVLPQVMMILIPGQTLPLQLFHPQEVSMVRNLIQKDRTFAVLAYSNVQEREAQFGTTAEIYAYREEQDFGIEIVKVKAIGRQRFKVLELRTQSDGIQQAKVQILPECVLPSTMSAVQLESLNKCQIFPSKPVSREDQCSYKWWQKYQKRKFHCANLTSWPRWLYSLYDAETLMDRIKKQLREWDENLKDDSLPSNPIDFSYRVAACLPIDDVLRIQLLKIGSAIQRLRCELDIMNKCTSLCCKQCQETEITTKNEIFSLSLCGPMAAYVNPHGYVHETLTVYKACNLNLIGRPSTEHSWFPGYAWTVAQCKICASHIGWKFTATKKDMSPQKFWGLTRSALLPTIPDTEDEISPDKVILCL
T1 sequence (Q16531 whole entry partner): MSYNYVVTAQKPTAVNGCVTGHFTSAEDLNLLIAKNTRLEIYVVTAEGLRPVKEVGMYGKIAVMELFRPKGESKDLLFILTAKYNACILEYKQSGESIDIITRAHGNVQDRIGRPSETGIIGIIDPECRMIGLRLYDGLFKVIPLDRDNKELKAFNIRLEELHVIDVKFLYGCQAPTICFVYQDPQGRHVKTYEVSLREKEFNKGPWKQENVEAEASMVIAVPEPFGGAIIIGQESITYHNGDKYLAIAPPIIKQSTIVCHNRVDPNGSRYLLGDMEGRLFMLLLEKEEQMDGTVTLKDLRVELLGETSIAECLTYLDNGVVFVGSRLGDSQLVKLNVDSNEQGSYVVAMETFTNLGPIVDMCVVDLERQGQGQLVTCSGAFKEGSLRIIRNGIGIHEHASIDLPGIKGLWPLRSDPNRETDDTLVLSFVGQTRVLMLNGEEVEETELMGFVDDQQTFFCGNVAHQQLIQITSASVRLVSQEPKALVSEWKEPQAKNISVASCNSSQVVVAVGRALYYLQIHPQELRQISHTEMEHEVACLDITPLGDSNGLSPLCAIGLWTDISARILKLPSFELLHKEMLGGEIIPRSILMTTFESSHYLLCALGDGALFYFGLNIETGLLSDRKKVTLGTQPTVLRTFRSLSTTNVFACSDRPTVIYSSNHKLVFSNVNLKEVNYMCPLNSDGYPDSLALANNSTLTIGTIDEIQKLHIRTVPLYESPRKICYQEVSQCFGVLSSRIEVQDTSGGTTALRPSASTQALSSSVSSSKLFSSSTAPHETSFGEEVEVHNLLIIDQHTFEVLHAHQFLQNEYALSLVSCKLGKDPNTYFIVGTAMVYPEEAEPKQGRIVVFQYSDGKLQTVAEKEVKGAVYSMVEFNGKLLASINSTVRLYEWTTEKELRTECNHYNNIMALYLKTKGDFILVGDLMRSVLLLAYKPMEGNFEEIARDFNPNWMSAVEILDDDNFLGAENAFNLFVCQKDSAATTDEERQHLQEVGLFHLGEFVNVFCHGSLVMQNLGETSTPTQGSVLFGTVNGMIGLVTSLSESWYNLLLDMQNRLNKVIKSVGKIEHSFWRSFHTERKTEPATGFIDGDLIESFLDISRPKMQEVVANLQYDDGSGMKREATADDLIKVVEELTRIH
T4 sequence (P48729 whole entry): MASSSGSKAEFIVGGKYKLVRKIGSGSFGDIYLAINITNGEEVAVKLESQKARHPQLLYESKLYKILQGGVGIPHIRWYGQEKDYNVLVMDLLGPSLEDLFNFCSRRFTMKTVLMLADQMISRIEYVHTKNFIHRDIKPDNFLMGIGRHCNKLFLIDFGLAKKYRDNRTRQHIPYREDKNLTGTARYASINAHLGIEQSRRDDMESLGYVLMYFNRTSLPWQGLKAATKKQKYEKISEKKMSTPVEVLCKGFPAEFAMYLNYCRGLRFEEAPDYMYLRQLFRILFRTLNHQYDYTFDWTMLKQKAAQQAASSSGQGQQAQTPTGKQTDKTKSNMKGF
T4 sequence (Q96SW2 whole entry): as the sequence (Q96SW2 whole entry) above
T4 sequence (Q16531 whole entry partner): as the sequence (Q16531 whole entry partner) above
T3 sequence (P15170 whole entry): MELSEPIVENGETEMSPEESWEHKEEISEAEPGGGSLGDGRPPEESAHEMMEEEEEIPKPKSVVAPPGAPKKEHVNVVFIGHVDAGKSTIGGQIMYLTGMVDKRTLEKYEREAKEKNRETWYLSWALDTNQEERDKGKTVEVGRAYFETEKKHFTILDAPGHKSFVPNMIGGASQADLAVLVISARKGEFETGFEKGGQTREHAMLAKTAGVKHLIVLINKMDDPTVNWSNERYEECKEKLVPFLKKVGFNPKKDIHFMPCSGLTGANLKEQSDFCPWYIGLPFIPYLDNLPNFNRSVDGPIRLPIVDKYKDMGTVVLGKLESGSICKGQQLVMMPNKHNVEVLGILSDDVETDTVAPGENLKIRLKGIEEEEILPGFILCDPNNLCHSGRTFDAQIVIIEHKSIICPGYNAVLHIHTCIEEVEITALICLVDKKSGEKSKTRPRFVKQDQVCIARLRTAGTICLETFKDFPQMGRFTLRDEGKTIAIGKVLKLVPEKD
T3 sequence (Q96SW2 whole entry): as the sequence (Q96SW2 whole entry) above
T3 sequence (Q16531 whole entry partner): as the sequence (Q16531 whole entry partner) above
T2 sequence (Q96SW2 whole entry): as the sequence (Q96SW2 whole entry) above
T5 sequence (P30291 whole entry): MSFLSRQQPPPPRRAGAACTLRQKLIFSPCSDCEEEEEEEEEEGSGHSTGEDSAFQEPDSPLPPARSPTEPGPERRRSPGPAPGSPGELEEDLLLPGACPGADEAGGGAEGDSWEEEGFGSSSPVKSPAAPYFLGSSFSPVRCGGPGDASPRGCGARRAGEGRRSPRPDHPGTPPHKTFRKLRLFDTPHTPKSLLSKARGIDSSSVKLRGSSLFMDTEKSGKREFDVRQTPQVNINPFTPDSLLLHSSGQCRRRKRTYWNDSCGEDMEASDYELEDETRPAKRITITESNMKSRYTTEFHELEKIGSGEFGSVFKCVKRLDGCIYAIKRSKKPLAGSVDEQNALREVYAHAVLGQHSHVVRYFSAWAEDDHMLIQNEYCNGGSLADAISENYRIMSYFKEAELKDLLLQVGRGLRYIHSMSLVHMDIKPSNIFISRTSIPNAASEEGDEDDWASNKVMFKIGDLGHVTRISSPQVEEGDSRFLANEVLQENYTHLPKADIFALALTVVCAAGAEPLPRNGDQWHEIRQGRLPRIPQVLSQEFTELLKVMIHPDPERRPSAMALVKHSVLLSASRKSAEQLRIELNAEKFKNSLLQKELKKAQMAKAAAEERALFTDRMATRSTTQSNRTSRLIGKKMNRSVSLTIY
T5 sequence (Q96SW2 whole entry): as the sequence (Q96SW2 whole entry) above
T5 sequence (Q16531 whole entry partner): as the sequence (Q16531 whole entry partner) above
T6 sequence (Q13422 whole entry): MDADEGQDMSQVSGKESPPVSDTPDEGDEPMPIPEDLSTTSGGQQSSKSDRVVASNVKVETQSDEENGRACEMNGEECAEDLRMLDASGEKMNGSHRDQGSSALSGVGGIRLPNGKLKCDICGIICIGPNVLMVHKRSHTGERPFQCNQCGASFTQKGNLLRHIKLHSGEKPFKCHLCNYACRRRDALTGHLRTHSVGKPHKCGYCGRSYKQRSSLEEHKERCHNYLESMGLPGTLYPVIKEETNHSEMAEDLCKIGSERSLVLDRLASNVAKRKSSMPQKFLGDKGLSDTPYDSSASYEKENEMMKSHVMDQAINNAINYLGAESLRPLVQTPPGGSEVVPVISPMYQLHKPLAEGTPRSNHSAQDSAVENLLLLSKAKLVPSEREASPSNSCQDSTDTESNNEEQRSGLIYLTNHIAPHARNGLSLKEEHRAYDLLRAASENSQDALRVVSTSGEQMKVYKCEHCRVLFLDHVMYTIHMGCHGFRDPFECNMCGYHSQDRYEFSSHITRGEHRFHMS
T6 sequence (Q96SW2 whole entry): as the sequence (Q96SW2 whole entry) above
T6 sequence (Q16531 whole entry partner): as the sequence (Q16531 whole entry partner) above

Row | Compound | IC50 [1] | IC50 [2] | IC50 [3] | IC50 [5] | IC50 [6, 23] | IC50 [7] | IC50 [8, 24] | IKZF3 substrate protein remaining % [4] | GSPT1 substrate protein remaining % [9] | CK1a substrate protein remaining % [10] | Weel substrate protein remaining % [11] | IKZF 1 substrate protein remaining % [12] | IKZF2 substrate protein remaining % [13] | inhibition at 0.01 µM [2] | inhibition at 0.5 µM [2] | inhibition at 0.01 µM [16] | inhibition at 0.5 µM [16] | inhibition at 0.01 µM [17] | inhibition at 0.5 µM [17] | also measured
1 | O=C1CCC(N2C(=O)c3ccc(CN4CC=C(c5cccc(Cl)c5Cl)CC4)cc3C2=O)C(=O)N1 (stereo not shown) [GT-07842, 5-((4-(2,3-dichlorophenyl)-3,6-dihydropyridin-1(2H)-yl)methyl)-2-(2,6-dioxopiperidin-3-yl)isoindoline-1,3-dione] |  |  |  |  |  |  |  | A (0% ≤ substrate protein remaining % ≤ 80%) | A (0% ≤ substrate protein remaining % ≤ 80%) | B (80%< substrate protein remaining %≤ 100%) | B (80%< substrate protein remaining %≤ 100%) | A (0% ≤ substrate protein remaining % ≤ 80%) | A (0% ≤ substrate protein remaining % ≤ 80%) | 20 to 30% | 90 to 100% | 30 to 40% | 40 to 50% | 20 to 30% | 20 to 30% | inhibition at 0.01 µM [8]: 20 to 30%; inhibition at 0.5 µM [8]: 80 to 90%
2 | O=C1CCC(N2C(=O)c3ccc(CN4CC(=C5CCOc6cc(F)ccc65)C4)cc3C2=O)C(=O)N1 (stereo not shown) [GT-08134, 2-(2,6-dioxopiperidin-3-yl)-5-((3-(7-fluorochroman-4-ylidene)azetidin-1-yl)methyl)isoindoline-1,3-dione] |  |  |  |  |  |  |  | A (0% ≤ substrate protein remaining % ≤ 80%) | A (0% ≤ substrate protein remaining % ≤ 80%) | B (80%< substrate protein remaining %≤ 100%) | B (80%< substrate protein remaining %≤ 100%) | A (0% ≤ substrate protein remaining % ≤ 80%) | A (0% ≤ substrate protein remaining % ≤ 80%) | 15 to 20% | 60 to 80% | 10 to 15% | 60 to 80% | 30 to 40% | 20 to 30% | 
3 | Nc1cccc2c1CN(C1CCC(=O)NC1=O)C2=O (stereo not shown) [lenalidomide, reference compound] |  |  |  |  |  |  |  |  |  |  |  |  |  | 10 to 15% | 10 to 15% | 5 to 10% | 0 to 5% | 15 to 20% | 10 to 15% | inhibition at 0.01 µM [8]: 15 to 20%; inhibition at 0.5 µM [8]: 10 to 15%

Now from value to compound, other results behind:

Row | IC50 [1] | IC50 [2] | IC50 [3] | IC50 [5] | IC50 [6, 23] | IC50 [7] | IC50 [8, 24] | Compound | IKZF3 substrate protein remaining % [4] | GSPT1 substrate protein remaining % [9] | CK1a substrate protein remaining % [10] | Weel substrate protein remaining % [11] | IKZF 1 substrate protein remaining % [12] | IKZF2 substrate protein remaining % [13] | inhibition at 0.01 µM [2] | inhibition at 0.5 µM [2] | inhibition at 0.01 µM [16] | inhibition at 0.5 µM [16] | inhibition at 0.01 µM [17] | inhibition at 0.5 µM [17] | also measured
4 | 50 to 100 nM | 10 to 50 nM | 100 to 500 nM | 10 to 50 nM | 500 to 1000 nM | 1000 to 1500 nM | 10 to 50 nM | Cn1cc(C2=CCN(Cc3ccc4c(c3)C(=O)N(C3CCC(=O)NC3=O)C4=O)CC2)c2ccc(F)cc21 (stereo not shown) [GT-06636, 2-(2,6-dioxopiperidin-3-yl)-5-((4-(6-fluoro-1-methyl-1H-indol-3-yl)-3,6-dihydropyridin-1(2H)-yl)methyl)isoindoline-1,3-dione] | A (0% ≤ substrate protein remaining % ≤ 80%) | A (0% ≤ substrate protein remaining % ≤ 80%) | A (0% ≤ substrate protein remaining % ≤ 80%) | A (0% ≤ substrate protein remaining % ≤ 80%) | A (0% ≤ substrate protein remaining % ≤ 80%) | A (0% ≤ substrate protein remaining % ≤ 80%) |  |  |  |  |  |  | 
5 | 50 to 100 nM | 10 to 50 nM | 100 to 500 nM | 10 to 50 nM |  | 1000 to 1500 nM | 10 to 50 nM | CC(C)c1cc2c(C3=CCN(Cc4ccc5c(c4)C(=O)N(C4CCC(=O)NC4=O)C5=O)CC3)ncnc2s1 (stereo not shown) [GT-06656, 2-(2,6-dioxopiperidin-3-yl)-5-((4-(6-isopropylthieno[2,3-d]pyrimidin-4-yl)-3,6-dihydropyridin-1(2H)-yl)methyl)isoindoline-1,3-dione] | A (0% ≤ substrate protein remaining % ≤ 80%) | A (0% ≤ substrate protein remaining % ≤ 80%) | B (80%< substrate protein remaining %≤ 100%) | A (0% ≤ substrate protein remaining % ≤ 80%) | A (0% ≤ substrate protein remaining % ≤ 80%) | A (0% ≤ substrate protein remaining % ≤ 80%) |  |  |  |  |  |  | 
6 | 50 to 100 nM | 10 to 50 nM | 100 to 500 nM | 50 to 100 nM | 100 to 500 nM | 500 to 1000 nM | 10 to 50 nM | O=C1CCC(N2C(=O)c3ccc(CN4CC=C(c5ncnc6sc(-c7ccccc7)cc56)CC4)cc3C2=O)C(=O)N1 (stereo not shown) [GT-06675, 2-(2,6-dioxopiperidin-3-yl)-5-((4-(6-phenylthieno[2,3-d]pyrimidin-4-yl)-3,6-dihydropyridin-1(2H)-yl)methyl)isoindoline-1,3-dione] | B (80%< substrate protein remaining %≤ 100%) | B (80%< substrate protein remaining %≤ 100%) | A (0% ≤ substrate protein remaining % ≤ 80%) | B (80%< substrate protein remaining %≤ 100%) | B (80%< substrate protein remaining %≤ 100%) | B (80%< substrate protein remaining %≤ 100%) |  |  |  |  |  |  | IC50 [14]: 500 to 1000 nM; IC50 [15, 25]: 500 to 1000 nM
7 | > 10000 nM | > 10000 nM | 500 to 1000 nM | > 10000 nM | > 10000 nM |  | > 10000 nM | Nc1cccc2c1C(=O)N(C1CCC(=O)NC1=O)C2=O (stereo not shown) [pomalidomide, reference compound] |  |  |  |  |  |  |  |  |  |  |  |  | IC50 ([14]; 96 h): > 10000 nM; IC50 [14]: > 10000 nM; IC50 ([1]; 96 h): > 10000 nM; IC50 ([15]; TMD8, 96 h, read-out: inhibitory activity (IC50, nM) against tumor cells proliferation, TMD8): 5000 to 10000 nM; IC50 [15, 25]: 5000 to 10000 nM; IC50 [18]: > 10000 nM; IC50 ([2]; 96 h): > 10000 nM; IC50 [19]: > 10000 nM; IC50 ([6]; NCI-H1975, 96 h, read-out: inhibitory activity (IC50, nM) against tumor cells proliferation, H1975): > 10000 nM; IC50 ([8]; MOLT-4, 96 h, read-out: inhibitory activity (IC50, nM) against tumor cells proliferation, Molt 4): > 10000 nM; IC50 [20]: > 10000 nM; IC50 [21]: > 10000 nM; IC50 ([17]; MDA-MB-231, 96 h, read-out: inhibitory activity (IC50, nM) against tumor cells proliferation, MDA-MB-231): > 10000 nM; IC50 [22]: > 10000 nM

Reference: patent EP4745137A1 (Gluetacs Therapeutics (Shanghai) Co., Ltd., priority 2023, dated 2025)
